Data published in ChEMBL document CHEMBL3351789, “Triazolopyridines as selective JAK1 inhibitors: from hit identification to GLPG0634” (J Med Chem, 2014).
In brackets after ≈: the same amount, converted by molar mass.

How the values were obtained:
[1] = organism: Homo sapiens; test: Selectivity index, ratio of IC50 for human recombinant JAK3 to IC50 for human recombinant JAK1
[2] = Metabolic stability in rat liver microsomes assessed as compound remaining after 60 mins; assay type: ADME; conditions: read-out: Stability
[3] = Kinetic solubility of the compound at pH 7.4; conditions: buffer
[4] = organism: Homo sapiens; test: Selectivity index, ratio of IC50 for human recombinant JAK2 to IC50 for human recombinant JAK1
[5] = molecular target: T1, Tyrosine-protein kinase JAK2 (Homo sapiens, UniProt O60674); test: Inhibition of JAK2 in human whole blood assessed as inhibition of GM-CSF-induced pSTAT5
T1 sequence (O60674 whole entry): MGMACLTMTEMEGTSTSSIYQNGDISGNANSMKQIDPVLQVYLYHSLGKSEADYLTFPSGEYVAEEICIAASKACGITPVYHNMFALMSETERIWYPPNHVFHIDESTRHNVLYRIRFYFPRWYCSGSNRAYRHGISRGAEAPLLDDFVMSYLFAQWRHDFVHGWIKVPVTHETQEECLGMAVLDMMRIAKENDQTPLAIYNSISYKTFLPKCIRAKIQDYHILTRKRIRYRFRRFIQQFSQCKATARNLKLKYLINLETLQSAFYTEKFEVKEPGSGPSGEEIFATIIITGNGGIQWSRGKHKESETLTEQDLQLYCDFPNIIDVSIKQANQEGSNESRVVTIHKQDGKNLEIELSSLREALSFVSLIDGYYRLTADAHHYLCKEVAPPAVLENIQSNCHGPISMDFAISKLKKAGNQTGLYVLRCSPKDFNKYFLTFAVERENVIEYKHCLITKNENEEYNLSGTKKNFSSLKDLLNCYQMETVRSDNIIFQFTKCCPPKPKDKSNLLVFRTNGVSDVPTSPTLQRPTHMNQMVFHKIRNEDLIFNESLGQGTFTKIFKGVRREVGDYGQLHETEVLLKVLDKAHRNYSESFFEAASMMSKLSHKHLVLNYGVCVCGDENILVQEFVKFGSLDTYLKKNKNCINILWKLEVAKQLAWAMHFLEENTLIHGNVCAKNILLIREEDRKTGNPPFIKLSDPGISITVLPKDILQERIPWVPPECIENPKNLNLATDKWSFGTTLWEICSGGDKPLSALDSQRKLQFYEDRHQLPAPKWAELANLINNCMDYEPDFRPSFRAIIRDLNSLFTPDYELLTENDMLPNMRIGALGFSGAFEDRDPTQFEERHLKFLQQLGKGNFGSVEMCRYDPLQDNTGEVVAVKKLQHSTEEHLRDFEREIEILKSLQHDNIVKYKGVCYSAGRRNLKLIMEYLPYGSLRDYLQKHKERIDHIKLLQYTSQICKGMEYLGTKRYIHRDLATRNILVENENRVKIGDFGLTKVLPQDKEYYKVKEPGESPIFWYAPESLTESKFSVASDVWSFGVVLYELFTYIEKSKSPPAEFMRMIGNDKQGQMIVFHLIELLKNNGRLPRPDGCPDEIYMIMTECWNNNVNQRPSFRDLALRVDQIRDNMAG

[6] = organism: Homo sapiens; test: Selectivity index, ratio of IC50 for human recombinant TYK2 to IC50 for human recombinant JAK1
[7] = Plasma protein binding in rat
[8] = molecular target: T2, Tyrosine-protein kinase JAK1 (Homo sapiens, UniProt P23458); test: Inhibition of human recombinant JAK1
T2 sequence (P23458 whole entry): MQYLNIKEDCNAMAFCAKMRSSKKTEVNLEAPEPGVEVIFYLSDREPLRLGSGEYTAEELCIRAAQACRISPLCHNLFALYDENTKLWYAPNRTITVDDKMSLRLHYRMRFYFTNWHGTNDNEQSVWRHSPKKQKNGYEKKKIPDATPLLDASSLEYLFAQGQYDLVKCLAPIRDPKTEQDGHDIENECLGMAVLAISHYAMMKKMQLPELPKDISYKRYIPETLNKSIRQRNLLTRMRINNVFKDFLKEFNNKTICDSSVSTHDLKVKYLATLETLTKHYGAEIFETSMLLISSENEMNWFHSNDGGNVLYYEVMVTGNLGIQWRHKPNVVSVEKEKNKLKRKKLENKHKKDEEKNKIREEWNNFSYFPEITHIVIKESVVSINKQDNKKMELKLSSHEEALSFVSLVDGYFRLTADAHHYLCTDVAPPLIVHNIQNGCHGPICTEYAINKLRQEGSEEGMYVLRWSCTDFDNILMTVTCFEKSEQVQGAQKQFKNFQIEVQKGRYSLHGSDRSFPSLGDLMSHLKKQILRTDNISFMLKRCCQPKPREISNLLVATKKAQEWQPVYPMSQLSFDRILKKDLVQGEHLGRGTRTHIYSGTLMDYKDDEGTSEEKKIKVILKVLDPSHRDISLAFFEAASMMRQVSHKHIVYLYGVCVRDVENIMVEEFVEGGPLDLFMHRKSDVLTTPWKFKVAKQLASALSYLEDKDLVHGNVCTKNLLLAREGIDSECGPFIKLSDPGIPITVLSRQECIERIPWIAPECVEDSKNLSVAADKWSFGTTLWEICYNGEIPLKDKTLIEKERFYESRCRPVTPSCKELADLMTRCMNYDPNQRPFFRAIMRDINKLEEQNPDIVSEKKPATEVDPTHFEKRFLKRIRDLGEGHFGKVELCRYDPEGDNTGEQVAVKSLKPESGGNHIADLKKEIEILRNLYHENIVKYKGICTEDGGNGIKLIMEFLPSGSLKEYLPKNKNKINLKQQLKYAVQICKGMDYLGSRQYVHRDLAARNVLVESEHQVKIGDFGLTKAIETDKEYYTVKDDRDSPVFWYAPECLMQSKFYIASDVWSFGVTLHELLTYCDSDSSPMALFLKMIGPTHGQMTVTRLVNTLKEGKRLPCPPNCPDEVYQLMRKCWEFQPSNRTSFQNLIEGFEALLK

[9] = molecular target: T2, Tyrosine-protein kinase JAK1; test: Inhibition of JAK1 in human whole blood assessed as inhibition of IL-6-induced pSTAT1
[10] = molecular target: Glycogen synthase kinase-3 beta (Homo sapiens, UniProt P49841); test: Inhibition of GSK3beta (unknown origin)
[11] = molecular target: Fibroblast growth factor receptor 3 (Homo sapiens, UniProt P22607); test: Inhibition of FGFR3 (unknown origin)
[12] = molecular target: Cyclin-dependent kinase 2 (Homo sapiens, UniProt P24941); test: Inhibition of CDK2 (unknown origin)
[13] = molecular target: Rho-associated protein kinase 1 (Homo sapiens, UniProt Q13464); test: Inhibition of ROCK1 (unknown origin)
[14] = molecular target: Inhibitor of nuclear factor kappa-B kinase subunit beta (Homo sapiens, UniProt O14920); test: Inhibition of IKKbeta (unknown origin)
Chain of Inhibitor of nuclear factor kappa-B kinase subunit beta (O14920 whole entry): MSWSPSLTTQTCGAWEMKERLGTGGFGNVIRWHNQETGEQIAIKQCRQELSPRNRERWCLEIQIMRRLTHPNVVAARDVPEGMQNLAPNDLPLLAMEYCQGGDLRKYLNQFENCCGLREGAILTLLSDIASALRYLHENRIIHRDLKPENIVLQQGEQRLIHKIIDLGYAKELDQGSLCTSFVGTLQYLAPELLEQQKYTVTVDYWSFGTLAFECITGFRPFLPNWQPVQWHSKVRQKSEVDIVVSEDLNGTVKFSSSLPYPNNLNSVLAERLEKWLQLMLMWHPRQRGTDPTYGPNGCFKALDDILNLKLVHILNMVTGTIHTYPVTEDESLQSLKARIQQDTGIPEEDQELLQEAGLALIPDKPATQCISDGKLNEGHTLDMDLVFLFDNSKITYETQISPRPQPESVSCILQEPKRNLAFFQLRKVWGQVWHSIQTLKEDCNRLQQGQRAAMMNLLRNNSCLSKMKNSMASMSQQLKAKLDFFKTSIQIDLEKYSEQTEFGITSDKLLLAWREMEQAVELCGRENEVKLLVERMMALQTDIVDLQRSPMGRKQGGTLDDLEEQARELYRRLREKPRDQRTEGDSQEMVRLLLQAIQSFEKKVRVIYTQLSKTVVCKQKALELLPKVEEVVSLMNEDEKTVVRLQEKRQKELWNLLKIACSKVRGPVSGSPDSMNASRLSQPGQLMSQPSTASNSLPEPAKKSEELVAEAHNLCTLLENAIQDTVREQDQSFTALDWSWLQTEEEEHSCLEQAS

[15] = molecular target: Serine/threonine-protein kinase TBK1 (Homo sapiens, UniProt Q9UHD2); test: Inhibition of TBK1 (unknown origin)
[16] = molecular target: Tyrosine-protein kinase JAK3 (Homo sapiens, UniProt P52333); test: Inhibition of human recombinant JAK3
Chain of Tyrosine-protein kinase JAK3 (P52333 whole entry): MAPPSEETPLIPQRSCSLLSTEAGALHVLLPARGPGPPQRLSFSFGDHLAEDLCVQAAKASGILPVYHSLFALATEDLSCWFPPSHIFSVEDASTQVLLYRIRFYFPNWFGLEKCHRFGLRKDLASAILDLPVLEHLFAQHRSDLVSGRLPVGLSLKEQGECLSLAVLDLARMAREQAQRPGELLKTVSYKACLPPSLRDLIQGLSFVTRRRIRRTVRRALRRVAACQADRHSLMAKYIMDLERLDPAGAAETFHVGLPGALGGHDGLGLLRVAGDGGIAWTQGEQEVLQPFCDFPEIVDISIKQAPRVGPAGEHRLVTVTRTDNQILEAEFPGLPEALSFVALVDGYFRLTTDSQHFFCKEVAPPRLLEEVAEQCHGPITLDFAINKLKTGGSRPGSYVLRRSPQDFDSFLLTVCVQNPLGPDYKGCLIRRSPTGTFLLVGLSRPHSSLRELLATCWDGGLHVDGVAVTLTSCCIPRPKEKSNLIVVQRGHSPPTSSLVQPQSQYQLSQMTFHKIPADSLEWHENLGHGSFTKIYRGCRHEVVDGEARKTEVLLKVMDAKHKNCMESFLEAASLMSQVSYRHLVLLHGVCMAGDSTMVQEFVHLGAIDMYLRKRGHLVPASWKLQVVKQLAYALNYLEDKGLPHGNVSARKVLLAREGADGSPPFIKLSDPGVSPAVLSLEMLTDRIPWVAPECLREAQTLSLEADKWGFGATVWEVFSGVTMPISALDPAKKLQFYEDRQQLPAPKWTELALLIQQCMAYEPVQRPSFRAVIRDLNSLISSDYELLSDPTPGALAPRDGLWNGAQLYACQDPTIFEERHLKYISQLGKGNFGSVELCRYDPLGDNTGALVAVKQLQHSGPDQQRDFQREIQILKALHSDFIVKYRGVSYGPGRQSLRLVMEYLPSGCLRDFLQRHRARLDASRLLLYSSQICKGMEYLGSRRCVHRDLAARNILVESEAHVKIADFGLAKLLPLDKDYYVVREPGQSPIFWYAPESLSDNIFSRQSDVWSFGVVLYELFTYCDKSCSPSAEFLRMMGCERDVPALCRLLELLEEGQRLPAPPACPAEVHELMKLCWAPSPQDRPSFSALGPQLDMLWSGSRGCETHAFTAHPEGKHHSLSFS

[17] = molecular target: MAP kinase-activated protein kinase 5 (Homo sapiens, UniProt Q8IW41); test: Inhibition of MAPKAPK5 (unknown origin)
Chain of MAP kinase-activated protein kinase 5 (Q8IW41 whole entry): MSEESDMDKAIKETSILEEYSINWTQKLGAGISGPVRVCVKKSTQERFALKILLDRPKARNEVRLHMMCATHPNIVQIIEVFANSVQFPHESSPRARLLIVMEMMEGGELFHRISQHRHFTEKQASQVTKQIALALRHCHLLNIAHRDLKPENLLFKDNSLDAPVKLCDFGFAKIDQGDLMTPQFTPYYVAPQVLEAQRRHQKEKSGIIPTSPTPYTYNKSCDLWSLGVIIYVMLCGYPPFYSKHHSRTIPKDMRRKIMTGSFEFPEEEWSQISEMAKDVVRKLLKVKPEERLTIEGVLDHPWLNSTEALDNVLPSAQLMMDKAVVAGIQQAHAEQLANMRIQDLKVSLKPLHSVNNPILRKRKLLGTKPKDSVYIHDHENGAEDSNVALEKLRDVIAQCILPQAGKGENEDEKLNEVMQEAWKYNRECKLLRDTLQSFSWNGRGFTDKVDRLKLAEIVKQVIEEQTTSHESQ

[18] = molecular target: T1, Tyrosine-protein kinase JAK2; test: Inhibition of human recombinant JAK2
[19] = molecular target: Mitogen-activated protein kinase kinase kinase 7 (Homo sapiens, UniProt O43318); test: Inhibition of TAK1 (unknown origin)
[20] = molecular target: Protein-tyrosine kinase 2-beta (Homo sapiens, UniProt Q14289); test: Inhibition of PYK2 (unknown origin)
[21] = molecular target: Non-receptor tyrosine-protein kinase TYK2 (Homo sapiens, UniProt P29597); test: Inhibition of human recombinant TYK2
[22] = molecular target: Mitogen-activated protein kinase 14 (Homo sapiens, UniProt Q16539); test: Inhibition of p38alpha (unknown origin)
Chain of Mitogen-activated protein kinase 14 (Q16539 whole entry): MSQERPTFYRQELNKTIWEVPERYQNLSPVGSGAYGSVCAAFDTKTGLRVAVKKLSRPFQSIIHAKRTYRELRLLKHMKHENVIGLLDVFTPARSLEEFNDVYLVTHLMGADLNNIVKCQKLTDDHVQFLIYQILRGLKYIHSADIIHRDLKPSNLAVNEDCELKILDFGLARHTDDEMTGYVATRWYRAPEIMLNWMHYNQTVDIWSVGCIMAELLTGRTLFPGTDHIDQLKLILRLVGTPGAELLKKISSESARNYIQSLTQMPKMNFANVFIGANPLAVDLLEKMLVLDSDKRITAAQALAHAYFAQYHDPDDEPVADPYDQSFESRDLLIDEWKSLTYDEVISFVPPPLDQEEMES

[23] = Inhibition of PKA (unknown origin); design: species or system Homo sapiens
[24] = molecular target: Tyrosine-protein kinase SYK (Homo sapiens, UniProt P43405); test: Inhibition of SYK (unknown origin)
[25] = molecular target: Tyrosine-protein kinase Lck (Homo sapiens, UniProt P06239); test: Inhibition of LCK (unknown origin)
[26] = molecular target: Receptor-interacting serine/threonine-protein kinase 2 (Homo sapiens, UniProt O43353); test: Inhibition of RIPK2 (unknown origin)
[27] = Tmax in rat at 5 mg/kg, po; assay type: ADME, organism-based; design: dose 5 mg/kg, route oral; conditions: in vivo
[28] = AUC (0 to infinity) in rat at 5 mg/kg, po; assay type: ADME, organism-based; design: time infinity, dose 5 mg/kg, route oral; conditions: plasma
[29] = Half life in rat at 5 mg/kg, po; assay type: ADME, organism-based; design: dose 5 mg/kg, route oral; conditions: in vivo

Row | Structure (SMILES) | Ratio IC50 [1] | Ratio IC50 [4] | Ratio IC50 [6] | IC50 ([8]; read-out: IC50) | further results
1 | O=C(Nc1nc2cccc(-c3ccc(CNC(=O)C(F)(F)F)cc3)n2n1)C1CC1 | 9.5 | 2.6 | 6.2 | 16 nM | remaining at 1 h [2]: 80%; solubility kinetic [3]: > 80 µg/mL; IC50 [5]: > 30000 nM; fraction unbound [7]: 0.17; IC50 [9]: 4470 nM
2 | O=C(Nc1nc2cccc(-c3ccc(CNC4CCS(=O)(=O)C4)cc3)n2n1)C1CC1 (stereo not drawn) | 8 | 2.1 | 9.6 | 41 nM | remaining at 1 h [2]: 85%; solubility kinetic [3]: > 85 µg/mL; IC50 [5]: > 30000 nM; IC50 [9]: 6150 nM
3 | O=C(Nc1nc2cccc(-c3ccccc3)n2n1)C1CC1 | 7.1 | 2.3 | 4.1 | 184 nM | 
4 | CC(C)(C)OCc1ccccc1-c1cccc2nc(NC(=O)C3CC3)nn12 |  |  |  | > 10000 nM | 
5 | CCC(=O)Nc1nc2cccc(-c3ccc(OC)cc3)n2n1 |  | 0.5 |  | 1980 nM | 
6 | O=C(Nc1nc2cccc(-c3cccc4ncccc34)n2n1)C1CC1 | 1.5 | 0.7 | > 1.6 | 2550 nM | 
7 | COc1ccc(-c2cccc3nc(-c4cccnc4)nn23)cc1 |  |  |  | > 10000 nM | 
8 | COc1ccc(-c2cc(C(F)(F)F)cn3nc(NC(=O)C4CC4)nc23)cc1 |  |  |  |  | IC50 [8]: Not Active
9 | O=C(Nc1nc2cccc(-c3ccc(Cc4ccc(O)c(CO)c4)cc3)n2n1)C1CC1 |  | 1.7 |  | 8.3 nM | solubility kinetic [3]: 28 µg/mL (≈ 67.6 µM)
10 | COc1ccc(-c2cccc3nc(NC(=O)C4CC4)nn23)cn1 | 4.4 | 1.5 | 6.2 | 547 nM | 
11 | CCOc1ccc(-c2cccc3nc(NC(=O)C4CC4)nn23)cc1 |  | 2 |  | 27 nM | 
12 | CN1CCN(Cc2ccc(-c3cccc4nc(NC(=O)C5CC5)nn34)cc2)CC1 |  |  |  | > 4000 nM | 
13 | O=C(Nc1nc2cccc(-c3cccc(Cl)c3)n2n1)C1CC1 | 6.7 | 1.1 | 2.4 | 142 nM | 
14 | COc1ccc(-c2cccc3nc(NC(=O)C4CC4)nn23)cc1 | 7.5 | 2 | 7.4 | 70 nM | IC50 [10]: 7110 nM; IC50 [11]: > 5740 nM; IC50 [12]: > 10000 nM; IC50 [13]: > 10000 nM; IC50 [14]: 24700 nM; IC50 [15]: > 4000 nM; IC50 [16]: 528 nM; IC50 [17]: > 10000 nM; IC50 [18]: 138 nM; IC50 [19]: > 10000 nM; IC50 [20]: 3180 nM; IC50 [21]: 519 nM; IC50 [22]: > 10000 nM; IC50 [23]: 40000 nM; IC50 [24]: 2270 nM; IC50 [25]: 4440 nM; IC50 [26]: 51000 nM
15 | COCc1cccc(-c2cccc3nc(NC(=O)C4CC4)nn23)c1 | 3.8 | 0.9 | 2.8 | 572 nM | 
16 | CCOc1ccc(-c2cccn3nc(NC(=O)C4CC4)nc23)cc1 |  | 2.2 |  | 67 nM | 
17 | CCOc1ccc(-c2nccc3nc(NC(=O)C4CC4)nn23)cc1 |  | 1.5 |  | 418 nM | 
18 | COc1ccc(-c2cccc3nc(N4CCCCC4)nn23)cc1 |  |  |  | > 10000 nM | 
19 | CNC(=O)Nc1nc2cccc(-c3ccc(OC)cc3)n2n1 |  | 0.7 |  | 413 nM | 
20 | COc1ccc(-c2cccc3nc(N)nn23)cc1 |  | 0.6 |  | 3060 nM | 
21 | O=C(Nc1nc2cccc(-c3ccc(Cl)cc3)n2n1)C1CC1 | 7.4 | 3.1 | 28.2 | 156 nM | 
22 | O=C(Nc1nc2cccc(-c3cn[nH]c3)n2n1)C1CC1 | 2.1 | 1.1 | > 3 | 1350 nM | 

Row | Structure (SMILES) | Ratio IC50 [1] | Ratio IC50 [4] | Ratio IC50 [6] | IC50 ([8]; read-out: IC50) | further results
23 | COc1ccc(-c2cccc3nc(N(C)C(=O)C4CC4)nn23)cc1 |  |  |  | > 10000 nM | 
24 | COc1ccc(-c2cccc3nc(NCC4CC4)nn23)cc1 |  |  |  | > 10000 nM | 
25 | C[C@@H]1CCN(C(=O)CC#N)C[C@@H]1N(C)c1ncnc2[nH]ccc12 [TOFACITINIB] |  |  |  |  | remaining at 1 h [2]: 27%
26 | CCOc1ccc(-c2cncc3nc(NC(=O)C4CC4)nn23)cc1 |  | 1 |  | 3100 nM | 
27 | COc1ccc(-c2cccc3nc(NC(=O)c4ccccc4)nn23)cc1 |  |  |  | > 10000 nM | 
28 | N#Cc1ccc(OCC2CN(c3ccc(-c4cccc5nc(NC(=O)C6CC6)nn45)cc3)C2)cc1 |  | 7.5 |  | 147 nM | 
29 | COc1ccc(-c2cccc3nc(NC(=O)C(C)C)nn23)cc1 |  |  |  | > 10000 nM | 
30 | O=C(Nc1nc2cccc(-c3ccc(NS(=O)(=O)C4CC4)cc3)n2n1)C1CC1 |  |  |  |  | fraction unbound [7]: 0.1
31 | O=C(Nc1nc2cccc(-c3ccc(CN4CCC(F)(F)CC4)cc3)n2n1)C1CC1 | 8.7 | 1.1 | 3.2 | 27 nM | remaining at 1 h [2]: 26%; solubility kinetic [3]: 27 µg/mL (≈ 65.6 µM); IC50 [5]: > 10000 nM; fraction unbound [7]: 0.3; Tmax [27]: 15 min; AUC(0-inf) [28]: 690 ng·h/mL; half-life [29]: 55.2 min; IC50 [9]: 2750 nM
32 | COc1ccc(-c2cccc3nc(Nc4ccc(NC(C)=O)cc4)nn23)cc1 |  | 0.9 |  | 2.8 nM | 
33 | O=C(Nc1nc2nccc(-c3ccccc3)n2n1)C1CC1 |  |  |  |  | IC50 [8]: Not Active
34 | COc1ncc(-c2cccc3nc(NC(=O)C4CC4)nn23)cn1 | > 4.1 | 2.1 | > 4.1 | 975 nM | 
35 | N#CCc1ccccc1NCc1ccc(-c2cccc3nc(NC(=O)C4CC4)nn23)cc1 | 26 | 11.4 | 9 | 1.4 nM | solubility kinetic [3]: 9.4 µg/mL (≈ 22.2 µM); fraction unbound [7]: 0.01
36 | Nc1nc2cccc(-c3ccc(CN4CCS(=O)(=O)CC4)cc3)n2n1 |  |  |  |  | IC50 [5]: > 100000 nM; IC50 [9]: 11900 nM
37 | COc1ccc(-c2cccc3nc(NC(C)=O)nn23)cc1 |  |  |  | > 4000 nM | 
38 | COc1ccc(-c2cccc3nc(NC(=O)C4(C)CC4)nn23)cc1 |  |  |  | > 10000 nM | 
39 | COc1ccccc1-c1cccc2nc(NC(=O)C3CC3)nn12 | 2 | 1.5 | 2.8 | 371 nM | 
40 | COc1ccc(-c2cccc3nc(NS(=O)(=O)C4CC4)nn23)cc1 |  |  |  | 5740 nM | 
41 | CCOc1ccc(-c2c(OC)ccc3nc(NC(=O)C4CC4)nn23)cc1 |  | > 1 |  | 3010 nM | 
42 | O=C(Nc1nc2cccc(-c3cccc(OCc4ccccc4)c3)n2n1)C1CC1 | 3 | 1 | 18 | 103 nM | 
43 | COc1ccc(-c2cccc3nc(N(C)C)nn23)cc1 |  |  |  | > 10000 nM | 
44 | O=C(NCCc1ccn(-c2ccccc2)n1)c1ccc(-c2cccc3nc(NC(=O)C4CC4)nn23)cc1 | 21 | 5.3 | 66 | 0.6 nM | solubility kinetic [3]: 4 µg/mL (≈ 8.14 µM); fraction unbound [7]: 0.01
